Measured values reported in PubChem BioAssay AID256 (DTP/NCI, 2004).
Values joined by “and” are separate entries in the source; they are usually repeats but may differ in a detail not shown here. Equal values may be shown once. Toxic doses and inconclusive results are not listed.

System: CD2F1 mice, L1210 leukemia ip, survival T/C
Test: NCI In Vivo Anticancer Drug Screen. Data for tumor model L1210 Leukemia (intraperitoneal) in CD2F1 (CDF1) mice
Conditions: higher = longer survival
In short: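 Compound-dosed mice with transplantable tumor versus matched vehicle controls; endpoint ratio T/C reported.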

[1] = endpoint: mean survival time, dose: 100.0 mg/kg/injection, schedule: Q04DX003 (ip), vehicle: saline with Tween-80
[2] = endpoint: mean survival time, dose: 200.0 mg/kg/injection, schedule: Q04DX003 (ip), vehicle: saline with Tween-80
[3] = endpoint: mean survival time, dose: 400.0 mg/kg/injection, schedule: Q04DX003 (ip), vehicle: saline with Tween-80
[4] = endpoint: mean survival time, dose: 100.0 mg/kg/injection, schedule: Q04DX002 (ip), vehicle: saline with Tween-80
[5] = endpoint: mean survival time, dose: 200.0 mg/kg/injection, schedule: Q04DX002 (ip), vehicle: saline with Tween-80
[6] = endpoint: mean survival time, dose: 400.0 mg/kg/injection, schedule: Q04DX002 (ip), vehicle: saline with Tween-80
[7] = endpoint: mean survival time, dose: 75.0 mg/kg/injection, schedule: Q01DX001 (ip), vehicle: saline
[8] = endpoint: mean survival time, dose: 150.0 mg/kg/injection, schedule: Q01DX001 (ip), vehicle: saline
[9] = endpoint: mean survival time, dose: 300.0 mg/kg/injection, schedule: Q01DX001 (ip), vehicle: saline
[10] = endpoint: median survival time, dose: 12.5 mg/kg/injection, schedule: Q01DX009 (ip), vehicle: saline with Tween-80
[11] = endpoint: median survival time, dose: 25.0 mg/kg/injection, schedule: Q01DX009 (ip), vehicle: saline with Tween-80
[12] = endpoint: mean survival time, dose: 100.0 mg/kg/injection, schedule: Q01DX009 (ip), vehicle: saline with Tween-80
[13] = endpoint: mean survival time, dose: 200.0 mg/kg/injection, schedule: Q01DX009 (ip), vehicle: saline with Tween-80
[14] = endpoint: mean survival time, dose: 50.0 mg/kg/injection, schedule: Q01DX009 (ip), vehicle: saline with Tween-80
[15] = endpoint: median survival time, dose: 6.25 mg/kg/injection, schedule: Q01DX009 (ip), vehicle: saline with Tween-80
[16] = endpoint: median survival time, dose: 100.0 mg/kg/injection, schedule: Q01DX009 (ip), vehicle: saline with Tween-80

With `O=C1OCSc2ccccc21` the T/C (endpoint: mean survival time, dose: 25.0 mg/kg/injection, schedule: Q01DX009 (ip), vehicle: saline sonified) was 108 % of control, the T/C (endpoint: mean survival time, dose: 50.0 mg/kg/injection, schedule: Q01DX009 (ip), vehicle: saline sonified) was 102 % of control and the T/C (endpoint: mean survival time, dose: 100.0 mg/kg/injection, schedule: Q01DX009 (ip), vehicle: saline sonified) was 102 % of control. For the same compound, the T/C [1] was 100 % of control, the T/C [2] was 101 % of control and the T/C [3] was 97 % of control.

In the case of `Cc1[nH]nc(C(F)(F)F)c1N=NN1CCOCC1`, the T/C (endpoint: mean survival time, dose: 75.0 mg/kg/injection, schedule: Q01DX001 (ip), vehicle: other) is reported as 100 % of control, the T/C (endpoint: mean survival time, dose: 150.0 mg/kg/injection, schedule: Q01DX001 (ip), vehicle: other) is reported as 109 % of control and the T/C (endpoint: mean survival time, dose: 300.0 mg/kg/injection, schedule: Q01DX001 (ip), vehicle: other) is reported as 101 % of control.

For `COC(C(=O)C(O)C(C)O)C1Cc2cc3cc(OC4CC(OC5CC(O)C(O)C(C)O5)C(O)C(C)O4)c(C)c(O)c3c(O)c2C(=O)C1OC1CC(OC2CC(O)C(OC3CC(C)(O)C(O)C(C)O3)C(C)O2)C(O)C(C)O1` (stereo not given), the T/C (endpoint: mean survival time, dose: 0.13 mg/kg/injection, schedule: Q01DX009 (ip), vehicle: saline) was 101 % of control, the T/C (endpoint: mean survival time, dose: 0.25 mg/kg/injection, schedule: Q01DX009 (ip), vehicle: saline) was 97 % of control and the T/C (endpoint: mean survival time, dose: 0.5 mg/kg/injection, schedule: Q01DX009 (ip), vehicle: saline) was 101 % of control. The T/C (endpoint: mean survival time, dose: 1.0 mg/kg/injection, schedule: Q01DX009 (ip), vehicle: saline) was 95 % of control.

For `CC(=O)[O][Sb]([CH3])([CH3])([CH3])[O]C(C)=O`, the T/C [4] was 110 % of control, the T/C [5] was 98 % of control and the T/C [6] was 103 % of control.

For `Cc1cc(CC(O)(C(F)(F)F)C(F)(F)F)cc(C(=O)O)n1`, the T/C [1] was 98 % of control, the T/C [2] was 107 % of control and the T/C [3] was 87 % of control.

`O=C(O)CCCCCNCC(CNCCCCCC(=O)O)(C(=O)O)C(=O)O` was tested, and the T/C [4] was 104 % of control, the T/C [5] was 96 % of control and the T/C [6] was 111 % of control.

With `COc1cc(C)c(NC(C)=O)c([N+](=O)[O-])c1` the T/C [7] was 100 % of control, the T/C [8] was 95 % of control and the T/C [9] was 95 % of control.

`O=c1[nH][nH]c(=O)c2c1oc1c(=O)[nH][nH]c(=O)c12` was tested, and the T/C (endpoint: mean survival time, dose: 25.0 mg/kg/injection, schedule: Q01DX001 (ip), vehicle: saline with Tween-80) was 104 % of control and the T/C (endpoint: mean survival time, dose: 50.0 mg/kg/injection, schedule: Q01DX001 (ip), vehicle: saline with Tween-80) was 92 % of control.

With `COc1ccc([I+]c2cccc(Cl)c2)cc1Cl` the T/C (endpoint: mean survival time, dose: 0.37 mg/kg/injection, schedule: Q01DX009 (ip), vehicle: saline with Tween-80) was 97 % of control, the T/C (endpoint: mean survival time, dose: 0.75 mg/kg/injection, schedule: Q01DX009 (ip), vehicle: saline with Tween-80) was 107 % of control and the T/C (endpoint: mean survival time, dose: 1.5 mg/kg/injection, schedule: Q01DX009 (ip), vehicle: saline with Tween-80) was 98 % of control. For the same compound, the T/C (endpoint: mean survival time, dose: 3.0 mg/kg/injection, schedule: Q01DX009 (ip), vehicle: saline with Tween-80) was 110 % of control, the T/C (endpoint: mean survival time, dose: 6.0 mg/kg/injection, schedule: Q01DX009 (ip), vehicle: saline with Tween-80) was 107 % of control and the T/C (endpoint: mean survival time, dose: 12.0 mg/kg/injection, schedule: Q01DX009 (ip), vehicle: saline with Tween-80) was 109 % of control. For the same compound, the T/C [10] was 116 % of control and the T/C [11] was 116 % of control.

`c1cnc(N2CC2)nn1` was tested, and the T/C (endpoint: mean survival time, dose: 100.0 mg/kg/injection, schedule: Q01DX001 (ip), vehicle: saline) was 105 % of control and the T/C (endpoint: mean survival time, dose: 200.0 mg/kg/injection, schedule: Q01DX001 (ip), vehicle: saline) was 113 % of control.

In the case of `Brc1ccc(-c2nc3sc(-c4ccc(Br)cc4)nc3s2)cc1`, the T/C [12] is reported as 108 % of control, the T/C [13] is reported as 104 % of control and the T/C (endpoint: mean survival time, dose: 400.0 mg/kg/injection, schedule: Q01DX009 (ip), vehicle: saline with Tween-80) is reported as 102 % of control.

In the case of `O=C(CC(O)(C(F)(F)F)C(F)(F)F)c1ccco1`, the T/C [14] is reported as 116 % of control, the T/C [12] is reported as 110 % of control and the T/C [1] is reported as 105 % of control. For the same compound, the T/C [2] was 100 % of control.

In the case of `CC1/C=C/C=C/CC/C=C/C=C/C=C/C=C/C(OC2OC(C)C(O)C(N)C2O)CC2OC(CC(O)C(O)CCC(O)CC(O)CC(O)CC(=O)OC(C)C(C)C1O)CC(O)C2C(=O)O` (stereo not given), the T/C (endpoint: mean survival time, dose: 9.5 mg/kg/injection, schedule: Q01DX009 (ip), vehicle: saline sonified) is reported as 95 % of control, the T/C (endpoint: mean survival time, dose: 9.5 mg/kg/injection, schedule: Q04DX003 (ip), vehicle: saline sonified) is reported as 98 % of control and the T/C (endpoint: mean survival time, dose: 19.0 mg/kg/injection, schedule: Q01DX009 (ip), vehicle: saline sonified) is reported as 93 % of control. For the same compound, the T/C (endpoint: mean survival time, dose: 19.0 mg/kg/injection, schedule: Q04DX003 (ip), vehicle: saline sonified) was 92 % of control, the T/C (endpoint: mean survival time, dose: 38.0 mg/kg/injection, schedule: Q01DX009 (ip), vehicle: saline sonified) was 87 % of control and the T/C (endpoint: mean survival time, dose: 38.0 mg/kg/injection, schedule: Q04DX003 (ip), vehicle: saline sonified) was 100 % of control. The T/C [15] was 100 % of control, the T/C [10] was 100 % of control and the T/C [11] was 102 % of control. The T/C (endpoint: median survival time, dose: 50.0 mg/kg/injection, schedule: Q01DX009 (ip), vehicle: saline with Tween-80) was 101 % of control and the T/C [16] was 100 % of control.

`ClC1CCCC[N-]1.ClC1CCCC[N-]1.[Cl][Pt+2][Cl]` (stereo not given) was tested, and the T/C (endpoint: mean survival time, dose: 12.5 mg/kg/injection, schedule: Q01DX009 (ip), vehicle: Klucel (hydroxypropylcellulose) (HPC)) was 103 % of control, the T/C (endpoint: mean survival time, dose: 25.0 mg/kg/injection, schedule: Q01DX009 (ip), vehicle: Klucel (hydroxypropylcellulose) (HPC)) was 100 % of control and the T/C (endpoint: mean survival time, dose: 50.0 mg/kg/injection, schedule: Q01DX009 (ip), vehicle: Klucel (hydroxypropylcellulose) (HPC)) was 95 % of control. The T/C (endpoint: mean survival time, dose: 100.0 mg/kg/injection, schedule: Q01DX009 (ip), vehicle: Klucel (hydroxypropylcellulose) (HPC)) was 94 % of control and the T/C (endpoint: mean survival time, dose: 200.0 mg/kg/injection, schedule: Q01DX009 (ip), vehicle: Klucel (hydroxypropylcellulose) (HPC)) was 97 % of control.

For `CC1(C)OC2C(CO)OC(NC3=C(C#N)CCCC3)C2O1` (stereo not given), the T/C (endpoint: mean survival time, dose: 12.5 mg/kg/injection, schedule: Q01DX005 (ip), vehicle: other) was 103 % of control, the T/C (endpoint: mean survival time, dose: 25.0 mg/kg/injection, schedule: Q01DX005 (ip), vehicle: other) was 105 % of control and the T/C (endpoint: mean survival time, dose: 50.0 mg/kg/injection, schedule: Q01DX005 (ip), vehicle: other) was 103 % of control. The T/C (endpoint: mean survival time, dose: 100.0 mg/kg/injection, schedule: Q01DX005 (ip), vehicle: other) was 97 % of control and the T/C (endpoint: mean survival time, dose: 200.0 mg/kg/injection, schedule: Q01DX005 (ip), vehicle: other) was 103 % of control.

With `O=C1Cc2ccccc2O1` the T/C (endpoint: mean survival time, dose: 25.0 mg/kg/injection, schedule: Q01DX009 (ip), vehicle: saline) was 93 % of control, the T/C (endpoint: mean survival time, dose: 50.0 mg/kg/injection, schedule: Q01DX009 (ip), vehicle: saline) was 96 % of control and the T/C (endpoint: mean survival time, dose: 100.0 mg/kg/injection, schedule: Q01DX009 (ip), vehicle: saline) was 100 % of control. The T/C (endpoint: mean survival time, dose: 200.0 mg/kg/injection, schedule: Q01DX009 (ip), vehicle: saline) was 97 % of control.

In the case of `O=C(CNC(=O)Nc1cccc(C(F)(F)F)c1)N/N=C/c1cccc([N+](=O)[O-])c1`, the T/C [14] is reported as 96 % of control, the T/C [12] is reported as 88 % of control and the T/C [13] is reported as 92 % of control.

For `Cc1cc(CC(Cl)(C(F)(F)F)C(F)(F)F)cc(CC(Cl)(C(F)(F)F)C(F)(F)F)n1`, the T/C (endpoint: mean survival time, dose: 12.5 mg/kg/injection, schedule: Q04DX003 (ip), vehicle: saline with Tween-80) was 97 % of control, the T/C (endpoint: mean survival time, dose: 25.0 mg/kg/injection, schedule: Q04DX003 (ip), vehicle: saline with Tween-80) was 97 % of control and the T/C (endpoint: mean survival time, dose: 50.0 mg/kg/injection, schedule: Q04DX003 (ip), vehicle: saline with Tween-80) was 97 % of control.

For `O=C1C=CC(n2cc(F)c(=O)[nH]c2=O)O1` (stereo not given), the T/C [15] was 122 % of control, the T/C (endpoint: median survival time, dose: 6.25 mg/kg/injection, schedule: Q01DX009 (ip), vehicle: saline) was 113 % of control and 115 % of control and the T/C (endpoint: median survival time, dose: 12.5 mg/kg/injection, schedule: Q01DX009 (ip), vehicle: saline) was 121 % of control. The T/C (endpoint: median survival time, dose: 25.0 mg/kg/injection, schedule: Q01DX009 (ip), vehicle: saline) was 122 % of control, the T/C (endpoint: median survival time, dose: 50.0 mg/kg/injection, schedule: Q01DX009 (ip), vehicle: saline) was 150 % of control and 162 % of control and the T/C [16] was 91 % of control. The T/C (endpoint: median survival time, dose: 100.0 mg/kg/injection, schedule: Q01DX009 (ip), vehicle: saline) was 96 % of control and 108 % of control.

`NC1CCCN(Cc2ccccc2)C1` (stereo not given) was tested, and the T/C [7] was 95 % of control, the T/C [8] was 97 % of control and the T/C [9] was 97 % of control.
